Test results as given in patent US7105538B2, “2-pyrrolidin-2-yl-[1,3,4]-oxadiazole compounds and their use as anti-depressants” (Gruenenthal GmbH, priority 2002, dated 2006).

System: phenylquinone-induced writhing in mice
Assay: Analgesic efficacy by phenylquinone-induced writhing in mice
Type: in vivo
Details: male NMRI mice; 10 mg/kg i.v., 10 min before phenylquinone i.p.; writhing counted 5-20 min after phenylquinone
Protocol: Investigation of Analgesic Efficacy by Testing Writhing in Mice
The investigation into analgesic efficacy was performed by phenylquinone-induced writhing in mice (modified after: I. C. Hendershot and J. Forsaith (1959), J. Pharmacol. Exp. Ther. 125, 237–240). Male NMRI mice weighing from 25 to 30 g were used for this purpose. 10 minutes after intravenous administration of the compounds tested, groups of 10 animals per substance dose received 0.3 ml/mouse of a 0.02% aqueous solution of phenylquinone (phenylbenzoquinone, Sigma, Deisenhofen; solution prepared by adding 5% of ethanol and stored in a water bath at 45° C.) administered intraperitoneally. The animals were placed individually into observation cages. A pushbutton counter was used to record the number of pain-induced stretching movements (writhing reactions=straightening of the torso with stretching of the rear extremities) for 5–20 minutes after phenylquinone administration. The control was provided by animals which received only physiological common salt solution. All substances were tested at the standard dosage of 10 mg/kg. The percentage inhibition (% inhibition) of the writhing reactions by a substance was calculated according to the following formula: […]

Compound	% inhibition of writhing reaction by intravenous administration of 10 mg/kg
O=C(CCC1CCCC1)N1CCCC1c1nnc(-c2cccc(Cl)c2)o1 (centres unmarked) [Example 247, 1-{2-[5-(3-chloro-phenyl)-[1,3,4]oxadiazol-2-yl]-pyrrolidin-1-yl}-3-cyclopentyl-propan-1-one]	33%
CCCCC(=O)N1CCCC1c1nnc(-c2cccc(Cl)c2)o1 (centres unmarked) [Example 248, 1-{2-[5-(3-chloro-phenyl)-[1,3,4]oxadiazol-2-yl]-pyrrolidin-1-yl}-pentan-1-one]	45%

System: 5HT uptake (serotonin re-uptake), synaptosomes from rat brain
Assay: Inhibition of serotonin re-uptake (5HT-uptake inhibition) in rat brain synaptosomes
Type: biochemical
Details: synaptosomes (P2 fraction) from medulla+pons region of male rats' brains; test concentration not given
Protocol: Tests of Inhibition of Serotonin Re-Uptake (5HT-Uptake Inhibition)
To be able to carry out these studies in vitro, synaptosomes were freshly isolated from rat brain areas. What is known as a “P2” fraction was used in each case. This was prepared in accordance with Gray and Whittaker's directions (E. G. Gray and V. P. Whittaker (1962) J. Anat. 76, 79–88). These vesicular particles were isolated from the medulla+pons region of male rats' brains for 5HT uptake. A detailed description of the method may be found in the literature (M. Ch. Frink, H.-H. Hennies, W. Englberger, M. Haurand and B. Wilffert (1996) Arzneim. -Forsch./Drug Res. 46 (III), 11,1029–1036). The 5HT-uptake inhibition of the following compounds was tested by way of example: […]

Compound	5HT uptake, % inhibition
CCOC(=O)CCC(=O)N1CCCC1c1nnc(-c2ccncc2)o1 (centres unmarked) [Example 4, 4-oxo-4-[2-(5-pyridin-4-yl-[1,3,4]oxadiazol-2-yl)-pyrrolidin-1-yl]-butyric acid ethyl ester]	72%
COc1ccc(C(=O)N2CCCC2c2nnc(-c3ccncc3)o2)c(OC)c1 (centres unmarked) [Example 5, (2,4-dimethoxy-phenyl)-[2-(5-pyridin-4-yl-[1,3,4]oxadiazol-2-yl)-pyrrolidin-1-yl]methanone]	81%
O=C(c1cccnc1Cl)N1CCCC1c1nnc(-c2ccncc2)o1 (centres unmarked) [Example 6, (2-chloro-pyridin-3-yl)-[2-(5-pyridin-4-yl-[1,3,4]oxadiazol-2-yl)pyrrolidin-1-yl]-methanone]	84%
CC1(C)C2CCC1(CS(=O)(=O)N1CCCC1c1nnc(-c3ccncc3)o1)C(=O)C2 (centres unmarked) [Example 7, 7,7-dimethyl-1-[2-(5-pyridin-4-yl-[1,3,4]oxadiazol-2-yl)-pyrrolidin-1-sulfonylmethyl]-bicyclo[2.2.1]heptan-2-one]	64%
CN(C)c1cccc(C(=O)N2CCCC2c2nnc(-c3cccnc3)o2)c1 (centres unmarked) [Example 12, (3-dimethyamino-phenyl)-[2-(5-pyridin-3-yl-[1,3,4]oxadiazol-2-yl)-pyrrolidin-1-yl]-methanone]	54%
COc1ccc(CC(=O)N2CCCC2c2nnc(-c3ccncc3)o2)cc1OC (centres unmarked) [Example 13, 2-(3,4-dimethoxy-phenyl)-1-[2-(5-pyridin-4-yl-[1,3,4]oxadiazol-2-yl)-pyrrolidin-1-yl]-ethanone]	67%
O=C(c1ccc(Cl)cc1)N1CCCC1c1nnc(-c2ccc(-c3ccccc3)cc2)o1 (centres unmarked) [Example 14, [2-(5-biphenyl-4-yl-[1,3,4]oxadiazol-2-yl)-pyrrolidin-1-yl]-(4-chloro-phenyl)-methanone]	69%
Cc1ccc(CS(=O)(=O)NC(Cc2ccccc2)C(=O)N2CCCC2c2nnc(-c3ccncc3)o2)cc1 (centres unmarked) [Example 21, N-{1-benzyl-2-oxo-2-[2-(5-pyridin-4-yl-[1,3,4]oxadiazol-2-yl)-pyrrolidin-1-yl]-ethyl}-4-methyl-benzylsulfonamide]	53%
O=S(=O)(c1cc(Cl)c(Cl)s1)N1CCCC1c1nnc(-c2ccncc2)o1 (centres unmarked) [Example 22, 4-{5-[1-(4,5-dichloro-thiophene-2-sulfonyl)-pyrrolidin-2-yl]-[1,3,4]oxadiazol-2-yl}-pyridine]	60%
COc1ccc(OC)c(CS(=O)(=O)N2CCCC2c2nnc(-c3cccnc3)o2)c1 (centres unmarked) [Example 30, 3-{5-[1-(2,5-dimethoxyl-benzylsulfonyl)-pyrrolidin-2-yl]-[1,3,4]oxadiazol-2-yl}-pyridine]	60%
Cc1cc(C)c(CS(=O)(=O)N2CCCC2c2nnc(-c3ccccc3F)o2)c(C)c1 (centres unmarked) [Example 61, 2-(2-fluoro-phenyl)-5-[1-(2,4,6-trimethyl-benzylsulfonyl)-pyrrolidin-2-yl]-[1,3,4]oxadiazole]	50%
O=C(COc1ccc(Cl)cc1)N1CCCC1c1nnc(-c2ccncc2)o1 (centres unmarked) [Example 67, 2-(4-chloro-phenoxy)-1-[2-(5-pyridin-4-yl-[1,3,4]oxadiazol-2-yl)-pyrrolidin-1-yl]-ethanone]	50%
O=C(C=Cc1ccccc1)N1CCCC1c1nnc(-c2ccccc2)o1 (centres unmarked) [Example 84, 3-phenyl-1-[2-(5-phenyl-[1,3,4]oxadiazol-2-yl)-pyrrolidin-1-yl]-propenone]	61%
Cc1nn(-c2ccccc2)nc1C(=O)N1CCCC1c1nnc(-c2ccncc2)o1 (centres unmarked) [Example 85, (5-methyl-2-phenyl-[1,2.3]triazol-4-yl)-[2-(5-pyridin-4-yl-[1,3,4]oxadiazol-2-yl)-pyrrolidin-1-yl]-methanone]	61%
O=S(=O)(Cc1ccc(F)cc1F)N1CCCC1c1nnc(-c2cccnc2)o1 (centres unmarked) [Example 86, 3-{5-[1-(2,4-difluoro-benzylsulfonyl)-pyrrolidin-2-yl]-[1,3,4]oxadiazol-2-yl}-pyridine]	73%
COc1cccc(-c2nnc(C3CCCN3C(=O)c3ccc(Br)cc3)o2)c1 (centres unmarked) [Example 92, (4-bromo-phenyl)-{2-[5-(3-methoxy-phenyl)-[1,3,4]oxadiazol-2-yl]-pyrrolidin-1-yl}-methanone]	58%
COc1cccc(-c2nnc(C3CCCN3C(=O)c3ccnc(Cl)c3)o2)c1 (centres unmarked) [Example 94, (2-chloro-pyridin-4-yl)-{2-[5-(3-methoxy-phenyl)-[1,3,4]oxadiazol-2-yl]-pyrrolidin-1-yl}-methanone]	50%
O=C(c1c(F)cccc1F)N1CCCC1c1nnc(-c2ccncc2)o1 (centres unmarked) [Example 101, (2,6-difluoro-phenyl)-[2-(5-pyridin-4-yl-[1,3,4]oxadiazol-2-yl)-pyrrolidin-1-yl]-methanone]	54%
CCOc1ccc(C(=O)N2CCCC2c2nnc(-c3ccccc3)o2)cc1 (centres unmarked) [Example 109, (4-ethoxy-phenyl)-[2-(5-phenyl-[1,3,4]oxadiazol-2-yl)-pyrrolidin-1-yl]-methanone]	54%
O=S(=O)(Cc1ccc(OC(F)(F)F)cc1)N1CCCC1c1nnc(-c2cccnc2)o1 (centres unmarked) [Example 134, 3-{5-[1-(4-trifluoromethoxy-benzylsulfonyl)-pyrrolidin-2-yl]-[1,3,4]oxadiazol-2-yl}-pyridine]	55%
O=C(c1cc(C(F)(F)F)ccc1C(F)(F)F)N1CCCC1c1nnc(-c2ccc(Cl)cc2)o1 (centres unmarked) [Example 164, (2,5-bis-trifluoromethyl-phenyl)-{2-[5-(4-chloro-phenyl)-[1,3,4]oxadiazol-2-yl]-pyrrolidin-1-yl}-methanone]	80%
O=C(c1cc(C(F)(F)F)ccc1C(F)(F)F)N1CCCC1c1nnc(-c2cccs2)o1 (centres unmarked) [Example 165, (2,5-bis-trifluoromethyl-phenyl)-[2-(5-thiophen-2-yl-[1,3,4]oxadiazol-2-yl)-pyrrolidin-1-yl]-methanone]	76%
CCCc1c(C(=O)N2CCCC2c2nnc(-c3cccnc3)o2)cnn1-c1ccccc1 (centres unmarked) [Example 166, (1-phenyl-5-propyl-1H-pyrazol-4-yl)-[2-(5-pyridin-3-yl-[1,3,4]oxadiazol-2-yl)-pyrrolidin-1-yl]-methanone]	78%
COc1cccc(-c2nnc(C3CCCN3C(=O)c3cccc(F)c3F)o2)c1 (centres unmarked) [Example 173, (2,3-difluoro-phenyl)-{2-[5-(3-methoxy-phenyl)-[1,3,4]oxadiazol-2-yl]-pyrrolidin-1-yl}-methanone]	62%
Cc1nc(C(F)(F)F)ccc1C(=O)N1CCCC1c1nnc(-c2ccccc2)o1 (centres unmarked) [Example 174, (2-methyl-6-trifluoromethyl-pyridin-3-yl)-[2-(5-phenyl-[1,3,4]oxadiazol-2-yl)-pyrrolidin-1-yl]-methanone]	61%
O=C(c1ccc(SC(F)(F)F)cc1)N1CCCC1c1nnc(-c2ccccc2)o1 (centres unmarked) [Example 181, [2-(5-phenyl-[1,3,4]oxadiazol-2-yl)-pyrrolidin-1-yl]-(4-trifluoromethylsulfanyl-phenyl)-methanone]	62%
O=C(N1CCc2ccc(S(=O)(=O)N3CCCC3c3nnc(-c4ccncc4)o3)cc2C1)C(F)(F)F (centres unmarked) [Example 182, 2,2,2-trifluoro-1-{7-[2-(5-pyridin-4-yl-[1,3,4]oxadiazol-2-yl)-pyrrolidin-1-sulfonyl]-3,4-dihydro-1H-isoquinolin-2-yl}-ethanone]	52%
